Data published in ChEMBL document CHEMBL3045705, “Thermal, kinetic, spectroscopic studies and anti-microbial, anti-tuberculosis, anti-oxidant properties of clioquinol and benzo-coumarin derivatives mixed complexes with copper ion” (2013).
Values after ≈ are worked out from the molar mass of the structure shown.

What was measured:
Type in all cases: functional
[1] = system: Mycobacterium tuberculosis; test: Growth inhibition of Mycobacterium tuberculosis H37Rv MTCC 200 at MIC after 28 days by micro dilution anti-microbial susceptibility test
[2] = system: Mycobacterium tuberculosis; test: Antitubercular activity against Mycobacterium tuberculosis H37Rv MTCC 200 after 28 days by micro dilution anti-microbial susceptibility test; conditions: H37Rv MTCC 200, 672 h
Aspergillus niger = test: Antifungal activity against Aspergillus niger ATCC 64958 after 16 to 18 hr by Kirby-Bauer disc diffusion method
Candida albicans = test: Antifungal activity against Candida albicans ATCC 66027 after 16 to 18 hr by Kirby-Bauer disk diffusion method
Bacillus subtilis = test: Antibacterial activity against Bacillus subtilis ATCC 11774 after 16 to 18 hr by Kirby-Bauer disk diffusion method
Streptococcus pyogenes = test: Antibacterial activity against Streptococcus pyogenes ATCC 12384 after 16 to 18 hr by Kirby-Bauer disc diffusion method
Pseudomonas aeruginosa = test: Antibacterial activity against Pseudomonas aeruginosa ATCC 25619 after 16 to 18 hr by Kirby-Bauer disc diffusion method
Escherichia coli = test: Antibacterial activity against Escherichia coli ATCC 25922 after 16 to 18 hr by Kirby-Bauer disc diffusion method

Compound: CC[C@@H](CO)NCCN[C@@H](CC)CO [ETHAMBUTOL]
- growth inhibition (GI) [1]: 99%
- MIC [2]: 3.12 µg/mL (≈ 15.3 µM)

Compound: CN[C@@H]1[C@H](O[C@H]2[C@H](O[C@H]3[C@H](O)[C@@H](O)[C@H](N=C(N)N)[C@@H](O)[C@@H]3N=C(N)N)O[C@@H](C)[C@]2(O)C=O)O[C@@H](CO)[C@H](O)[C@H]1O [STREPTOMYCIN]
- growth inhibition (GI) [1]: 98%
- MIC [2]: 6.25 µg/mL (≈ 10.7 µM)

Compound: OC(Cn1cncn1)(Cn1cncn1)c1ccc(F)cc1F [FLUCONAZOLE]
- MIC (Aspergillus niger): 10 µg/mL (≈ 32.7 µM)
- MIC (Candida albicans): 10 µg/mL (≈ 32.7 µM)

Compound: O=C(/C=C/c1ccccc1)c1cc2c(ccc3ccccc32)oc1=O
- growth inhibition (GI) [1]: 18%
- MIC (Aspergillus niger): 200 µg/mL (≈ 613 µM)
- MIC [2]: 100 µg/mL (≈ 306 µM)
- MIC (Candida albicans): 400 µg/mL (≈ 1230 µM)
- MIC (Bacillus subtilis): > 600 µg/mL
- MIC (Streptococcus pyogenes): 400 µg/mL (≈ 1230 µM)
- MIC (Pseudomonas aeruginosa): 400 µg/mL (≈ 1230 µM)
- MIC (Escherichia coli): 400 µg/mL (≈ 1230 µM)

Compound: O=C(/C=C/c1ccc(O)cc1)c1cc2c(ccc3ccccc32)oc1=O
- growth inhibition (GI) [1]: 46%
- MIC (Aspergillus niger): 400 µg/mL (≈ 1170 µM)
- MIC [2]: 50 µg/mL (≈ 146 µM)
- MIC (Candida albicans): 200 µg/mL (≈ 584 µM)
- MIC (Bacillus subtilis): 400 µg/mL (≈ 1170 µM)
- MIC (Streptococcus pyogenes): 400 µg/mL (≈ 1170 µM)
- MIC (Pseudomonas aeruginosa): 200 µg/mL (≈ 584 µM)
- MIC (Escherichia coli): 200 µg/mL (≈ 584 µM)

Compound: O=C(/C=C/c1ccc([N+](=O)[O-])cc1)c1cc2c(ccc3ccccc32)oc1=O
- growth inhibition (GI) [1]: 54%
- MIC (Aspergillus niger): 200 µg/mL (≈ 539 µM)
- MIC [2]: 50 µg/mL (≈ 135 µM)
- MIC (Candida albicans): 200 µg/mL (≈ 539 µM)
- MIC (Bacillus subtilis): 200 µg/mL (≈ 539 µM)
- MIC (Streptococcus pyogenes): 100 µg/mL (≈ 269 µM)
- MIC (Pseudomonas aeruginosa): 200 µg/mL (≈ 539 µM)
- MIC (Escherichia coli): 100 µg/mL (≈ 269 µM)

Compound: CC1(C)S[C@@H]2[C@H](NC(=O)[C@H](N)c3ccccc3)C(=O)N2[C@H]1C(=O)O [AMPICILLIN]
- MIC (Bacillus subtilis): 100 µg/mL (≈ 286 µM)
- MIC (Streptococcus pyogenes): 100 µg/mL (≈ 286 µM)
- MIC (Pseudomonas aeruginosa): 100 µg/mL (≈ 286 µM)
- MIC (Escherichia coli): 100 µg/mL (≈ 286 µM)

Compound: NYSTATIN
- MIC (Aspergillus niger): 100 µg/mL
- MIC (Candida albicans): 100 µg/mL

Compound: O=C(/C=C/c1ccc(Cl)cc1)c1cc2c(ccc3ccccc32)oc1=O
- growth inhibition (GI) [1]: 88%
- MIC (Aspergillus niger): 200 µg/mL (≈ 554 µM)
- MIC [2]: 12.5 µg/mL (≈ 34.6 µM)
- MIC (Candida albicans): 200 µg/mL (≈ 554 µM)
- MIC (Bacillus subtilis): 200 µg/mL (≈ 554 µM)
- MIC (Streptococcus pyogenes): 100 µg/mL (≈ 277 µM)
- MIC (Pseudomonas aeruginosa): 100 µg/mL (≈ 277 µM)
- MIC (Escherichia coli): 100 µg/mL (≈ 277 µM)

Compound: O=C(O)c1cn(C2CC2)c2cc(N3CCNCC3)c(F)cc2c1=O [CIPROFLOXACIN]
- MIC (Bacillus subtilis): 5 µg/mL (≈ 15.1 µM)
- MIC (Streptococcus pyogenes): 20 µg/mL (≈ 60.4 µM)
- MIC (Pseudomonas aeruginosa): 10 µg/mL (≈ 30.2 µM)
- MIC (Escherichia coli): 20 µg/mL (≈ 60.4 µM)

Compound: O=C(/C=C/c1ccccc1[N+](=O)[O-])c1cc2c(ccc3ccccc32)oc1=O
- growth inhibition (GI) [1]: 37%
- MIC (Aspergillus niger): 200 µg/mL (≈ 539 µM)
- MIC [2]: 50 µg/mL (≈ 135 µM)
- MIC (Candida albicans): 400 µg/mL (≈ 1080 µM)
- MIC (Bacillus subtilis): 400 µg/mL (≈ 1080 µM)
- MIC (Streptococcus pyogenes): 200 µg/mL (≈ 539 µM)
- MIC (Pseudomonas aeruginosa): 400 µg/mL (≈ 1080 µM)
- MIC (Escherichia coli): 200 µg/mL (≈ 539 µM)

Compound: CCn1cc(C(=O)O)c(=O)c2cc(F)c(N3CCNCC3)cc21 [NORFLOXACIN]
- MIC (Bacillus subtilis): 10 µg/mL (≈ 31.3 µM)
- MIC (Streptococcus pyogenes): 10 µg/mL (≈ 31.3 µM)
- MIC (Pseudomonas aeruginosa): 10 µg/mL (≈ 31.3 µM)
- MIC (Escherichia coli): 10 µg/mL (≈ 31.3 µM)

Compound: O=C(/C=C/c1cccc(O)c1)c1cc2c(ccc3ccccc32)oc1=O
- growth inhibition (GI) [1]: 23%
- MIC (Aspergillus niger): 200 µg/mL (≈ 584 µM)
- MIC [2]: 100 µg/mL (≈ 292 µM)
- MIC (Candida albicans): 200 µg/mL (≈ 584 µM)
- MIC (Bacillus subtilis): 600 µg/mL (≈ 1750 µM)
- MIC (Streptococcus pyogenes): 200 µg/mL (≈ 584 µM)
- MIC (Pseudomonas aeruginosa): 200 µg/mL (≈ 584 µM)
- MIC (Escherichia coli): 400 µg/mL (≈ 1170 µM)

Compound: NNC(=O)c1ccncc1 [ISONIAZID]
- growth inhibition (GI) [1]: 99%
- MIC [2]: 0.25 µg/mL (≈ 1.82 µM)
